The values below come from patent US12465658B2, “Eye drop composition” (Aratana Therapeutics, Inc., priority 2012, dated 2025).

Data set [1] concerns herpes simplex virus type 1 (HSV-1). The following applies: in vivo, reported; cited from earlier work.
The test system of the next data set is varicella-zoster (VZV). The note with it: in vivo, reported; cited from earlier work.
Data set [2] can be described thus: Vehicle candidates tested to solubilize A-5021 at 5 mg/mL at neutral pH. The data set is classed as physicochemical. The following applies: aqueous with cosolvent or surfactant or cyclodextrin, pH 6.98-7.1 1, read-out: concentration of A-5021 solubilized. The protocol:
Based on the above indicated results and in order to be able to formulate A-5021 at pharmacologically active concentrations (preferably about […]), it was considered to investigate of additional solubilizing agents and/or keeping a high amount of propylene glycol at neutral pH. In total 28 vehicle candidates were tested to solubilize A-5021 at 5 mg/mL at neutral pH: propylene glycol at concentration ranging from 20% to 80% w/v, glycofurol at concentration ranging from 5% to 50% w/v, glycerol at concentration ranging from 15% to 50% w/v, 15% w/v glycerol+15 w/v glycofurol, 25% w/v propylene glycol+25% w/v glycofurol, propylene glycol (range: 15%-60% w/v)+glycerol (range: 5%-15% w/v), 25% w/v Kleptose® HPB+25% propylene glycol, cremophor RH 40, cremophor EL, solutol HS 15, 40-50% Kleptose® HPB, miglyol 812N, liquid paraffin, polyvinylpyrrolidone K12.
Only four vehicles allowed solubilizing A-5021 at the concentration of 5 mg/mL (0.5% w/v) at close to neutral pH (the pH ranged from 6.98-7.1 1). These vehicles are (% w/v in water): • (i) 80% w/v propylene glycol; • (ii) 50% w/v Kleptose® HPB; • (iii) 60% w/v propylene glycol+15% w/v glycerol; • (iv) 60% w/v propylene glycol+10% w/v glycerol.

The subject of data set [3] is herpes simplex virus type 2 (HSV-2). The note with it: in vivo, reported; cited from earlier work.
The next data set has as its system herpes virus. The note with it: Neyts et al. 2001; Iwayama et al. 1998; cited from earlier work.
The conditions of data set [4]: background; more than 1 mg/mL typically requires pH below 4 or above 10; cited from earlier work.
A short description of data set [5]: Solubility of A-5021 by slurry experiments (24 h equilibration, filtration, HPLC of filtrate). The data set is classed as physicochemical. The note with it: for solubility at 24 h: thermodynamic from solid. The protocol:
In order to determine the solubility of A-5021 (i.e. 2-amino-9-[[(1S,2R)-1,2-bis(hydroxymethyl)cyclopropyl]methyl]-1,9-dihydro-6H-Purin-6-one), a first series of 33 slurry experiments was performed. Within these experiments a set of 33 different systems (varying in i.e. buffers, co-solvents, solubilizing agents) were considered. The following six buffers were used: HCl buffer (pH 2), phosphate buffer (pH 6.8 and 7.4), tris(hydroxymethyl)aminoethane buffer (pH 9), sodium carbonate/bicarbonate (pH 10.8), and potassium dihydrogen phosphate (pH 12). As co-solvents dimethyl sulfoxide (DMSO), dimethyl acetamide (DMA), N-methyl pyrrolidone (NMP), ethanol (EtOH), and propylene glycol were used with varying concentrations. The solubilizing agents used were propylene glycol, glycerin, solutol HS 15, polysorbate 80, beta-cyclodextrin, hydroxypropyl beta-cyclodextrin (Kleptose® HPB), cremophor EL, cremophor RH 60, polyethylene glycol (PEG) 300, PEG 400, and sulfobutylether beta-cyclodextrin (e.g. Captisol®). The solubility was determined by filtration of the slurries after 24 h equilibration time. The A-5021 concentration in the filtrates was analyzed by High-Performance Liquid Chromatography (HPLC), from which the corresponding solubility was calculated.
Two different buffer systems, co-solvents, and solubilizing agents were considered with focus on systems that gave the best results as reported above. The solubility was again determined by filtration of the slurries after 24 h equilibration time. The A-5021 concentration in the filtrates was analyzed by HPLC, from which the corresponding solubility was calculated. Overall, no greater solubility values than the already reported values were found. […] A close to neutral pH buffered system (80% v/v propylene glycol and 20% v/v phosphate buffer at pH 7.4), which is of interest to develop ophthalmic solutions (allowing topical application of A-5021 to herpes virus-infected eyes) allows to solubilize A-5021 at 8.18 mg/mL. When 2-hydroxypropyl beta-cyclodextrin (HPBC) is used as a solubilizing agent instead of propylene glycol, the solubility of A-5021 decreases compared to the propylene glycol buffered systems.

Like-named read-outs stand apart in the source and are kept apart here.

For the compound `Nc1nc2c(ncn2C[C@]2(CO)C[C@H]2CO)c(=O)[nH]1` [Formulation A-5021, 2-amino-9-[[(1S,2R)-1,2-bis(hydroxymethyl)cyclopropyl]methyl]-1,9-dihydro-6H-Purin-6-one], the antiviral activity entry in data set [1] was “potent and selective antiviral agent”; in the data set on varicella-zoster (VZV) it was “potent and selective antiviral agent”; in data set [3], “potent and selective antiviral agent”. The solubility was 5000 µg/mL in data set [2] (vehicle (i) 80% w/v propylene glycol in water); 5000 µg/mL in data set [2] (vehicle (ii) 50% w/v Kleptose HPB in water); 5000 µg/mL in data set [2] (vehicle (iii) 60% w/v propylene glycol+15% w/v glycerol in water); 5000 µg/mL in data set [2] (vehicle (iv) 60% w/v propylene glycol+10% w/v glycerol in water); “poor solubility” in data set [4]. For the same compound, in the data set on herpes virus, the “inhibition of herpes virus replication” value was “potent inhibitor”. For the same compound, the solubility at 24 h was 8640 µg/mL in data set [5] (80% (v/v) propylene glycol / 20% (v/v) buffer, pH 1, aqueous with cosolvent or surfactant or cyclodextrin, 80% (v/v) propylene glycol in 20% (v/v) buffer (pH 1 1.3), highest solubility); 8180 µg/mL in data set [5] (80% v/v propylene glycol / 20% v/v phosphate buffer, pH 7.4, aqueous with cosolvent or surfactant or cyclodextrin, 80% v/v propylene glycol and 20% v/v phosphate buffer at pH 7.4); 6760 µg/mL in data set [5] (pH 2.2, aqueous with cosolvent or surfactant or cyclodextrin, 60% v/v HCl buffer and 40% w/v HPBC, pH 2.2); 8500 µg/mL in data set [5] (pH 2.8, aqueous with cosolvent or surfactant or cyclodextrin, acidic pH 2.8 instead of pH 11.3, room temperature); 3280 to 4050 µg/mL in data set [5] (pH 7, aqueous with cosolvent or surfactant or cyclodextrin, 5.7-33.34% v/v propylene glycol, 33.33-40% w/v/v HPBC, 33.34-54.3% v/v buffer, pH 7.0-7.4); 4910 µg/mL in data set [5] (pH 7, aqueous with cosolvent or surfactant or cyclodextrin, 60% v/v HCl buffer and 40% w/v HPBC, pH 7). Moreover, in data set [5] (pH 12 buffered solutions), the “effect on solubility of adding an organic co-solvent” value is “does not improve the solubility”.
